Tests used:
3T3-L1 Adipocytes [1] = experiment: Free fatty acid levels in cultured mouse 3T3-L1 adipocytes, isoproterenol stimulated (Example 2); type: cell-based; conditions: test peptides 25 μM; isoproterenol 1 nM
Summary of the method: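 3T3-L1 cells differentiated 12–17 days into adipocytes, then exposed to test peptides at 25 μM final for 18–20 h, then 1 h, then 3 h with isoproterenol (1 nM) at 37 °C. Free fatty acids in the medium measured colorimetrically at 540 nm, corrected for untreated background and expressed relative to isoproterenol-only cells.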

3T3-L1 Adipocytes [2] = experiment: Free fatty acid levels in cultured mouse 3T3-L1 adipocytes, forskolin stimulated (Example 3); type: cell-based; conditions: test peptides 25 μM; forskolin 1 μM
Experimental: Mouse 3T3-L1 cells were seeded at 1,000-20,000 cells per well on 96-well, 48-well, or 24-well plates in Pre-adipocyte Medium (Zen-Bio, Durham, N.C.) and grown to confluence at 37° C. in a humidified atmosphere of 5% CO2/95% air. Two days after confluence, cells were placed in Adipocyte Differentiation Medium (Zen-Bio, Durham, N.C.) and cultured for three additional days at 37° C. in a humidified atmosphere of 5% CO2/95% air. The culture media was then replaced with Adipocyte Maintenance Medium (Zen-Bio) and the cells were maintained for an additional 9-14 days at 37° C. in a humidified atmosphere of 5% CO2/95% air with partial medium replacement every other day. Following 12-17 days of differentiation, test peptides were added at a final concentration of 25 μM and incubated for 18-20 hours in Adipocyte Maintenance Medium at 37° C. in a humidified atmosphere of 5% CO2/95%. After 18-20 hours, the media was exchanged with fresh Adipocyte Maintenance Medium containing test peptides and incubated for 1 h at 37° C. in a humidified atmosphere of 5% CO2/95%. After 1 h media was exchanged with Assay Buffer (Zen-Bio) containing forskolin (1 μM) (added to all samples except untreated controls) and test peptides. Cells were incubated for a further 3 hours at 37° C. in a humidified atmosphere of 5% CO2/95%. Free fatty acid concentrations in the media were determined using a Free Fatty Acid Assay Kit (Zen-Bio) according to the manufacturer's instructions using a plate reader (540 nm). Absorbance values were corrected for untreated background and expressed relative to forskolin treated cells. Treatment with forskolin (1 μM) alone was used as the free fatty acid level stimulatory control. The relative standard deviation of the forskolin control was <10%. […] Free fatty acid levels for insulin (100 nM) treatment were <9% of the forskolin control value.

Human Primary Adipocytes = experiment: Free fatty acid levels in cultured human primary adipocytes, forskolin stimulated (Example 5); type: cell-based; conditions: test peptides 25 μM; forskolin 1 μM
Experimental: Human primary adipocytes were seeded at 5,000-100,000 cells per well on 96-well, 48-well, or 24-well plate in Pre-adipocyte Medium (Zen-Bio, Durham, N.C.) and grown to confluence at 37° C. in a humidified atmosphere of 5% CO2/95% air. Two days after confluence, cells were placed in Adipocyte Differentiation Medium (Zen-Bio, Durham, N.C.) and cultured for three additional days at 37° C. in a humidified atmosphere of 5% CO2/95% air. The culture media was then replaced with Adipocyte Maintenance Medium (Zen-Bio) and the cells were maintained for an additional 11-21 days at 37° C. in a humidified atmosphere of 5% CO2/95% air with partial medium replacement every other day. Following 14-24 days of differentiation, test peptides were added at a final concentration of 25 μM and incubated for 18-20 hours in Adipocyte Maintenance Medium at 37° C. in a humidified atmosphere of 5% CO2/95%. After 18-20 hours, the media was exchanged with fresh Adipocyte Maintenance Medium containing test peptides and incubated for 1 h at 37° C. in a humidified atmosphere of 5% CO2/95%. After 1 h media was exchanged with Assay Buffer (Zen-Bio) containing forskolin (1 μM) (added to all samples except untreated controls) and test peptides. Cells were incubated for a further 3 hours at 37° C. in a humidified atmosphere of 5% CO2/95%. Free fatty acid concentrations in the media were determined using a Free Fatty Acid Assay Kit (Zen-Bio) according to the manufacturer's instructions using a plate reader (540 nm). Absorbance values were corrected for untreated background and expressed relative to forskolin treated cells. Treatment with forskolin (1 μM) alone was used as the free fatty acid level stimulatory control. The relative standard deviation of the forskolin control was <20%. […] Free fatty acid levels for insulin (100 nM) treatment were <8% of the forskolin control value.

[3] = Stability in mouse plasma, peptides 100 uM (Example 14); type: in vitro ADME; conditions: mouse plasma 37° C., peptide 100 uM; for remaining at 0.25 h, 100 uM / remaining at 0.5 h, 100 uM / remaining at 1 h, 100 uM / remaining at 2 h, 100 uM / remaining at 3 h, 100 uM: pooled mouse plasma; for remaining at 0.25 h, 100 uM: 15 min, read-out: % Remaining at Each Time Point: 15 min; for remaining at 0.5 h, 100 uM: 30 min, read-out: % Remaining at Each Time Point: 30 min; for remaining at 1 h, 100 uM: 60 min, read-out: % Remaining at Each Time Point: 60 min; for remaining at 2 h, 100 uM: 120 min, read-out: % Remaining at Each Time Point: 120 min; for remaining at 3 h, 100 uM: 180 min, read-out: % Remaining at Each Time Point: 180 min
Experimental: Peptides (100 uM) were incubated in pooled mouse plasma at 37° C. and samples were removed and immediately analyzed for the concentration of intact peptide by LC/MS/MS over the course of 3 hours. The percent of peptide remaining in plasma at each time point was calculated relative to the initial peak area (Table 12).

[4] = test system: Diet Induced Obese (DIO) mice; experiment: Body weight, blood glucose and fat mass in Diet Induced Obese mice, 10 days (Example 6); type: in vivo, Male C57BL/6 mice; conditions: male DIO mice; 10 days twice daily intraperitoneal 15 mg/kg; N = 8; mean
Experimental: Animals were randomized to treatment groups based on blood glucose levels and body weight. The peptides of the invention were administered to two groups of male DIG mice once or twice daily by subcutaneous or intraperitoneal injection at a dose of 15 mg/kg/dose for 10 days (N=8 animals per treatment group). An additional group of male DIG mice (n=8) received vehicle (water or saline) alone. Body weight, blood glucose levels and food intake were monitored. Body mass distribution (fat vs lean) was determined by quantitative whole body NMR prior to dosing and at the end of dosing.

Row | Substance | Free Fatty Acid Levels in 3T3-L1 Adipocytes Expressed as a Percent of Isoproterenol Control: Percent of Control Value (3T3-L1 Adipocytes [1]) [%] | Free Fatty Acid Levels in 3T3-L1 Adipocytes Expressed as a Percent of Forskolin Control: Percent of Control Value (3T3-L1 Adipocytes [2]) [%] | Free Fatty Acid Levels in Human Primary Adipocytes Expressed as a Percent of Forskolin Control: Percent of Control Value (Human Primary Adipocytes) [%] | % Remaining at Each Time Point: 0 min [3] [%] | remaining at 0.25 h, 100 uM [3] [%] | remaining at 0.5 h, 100 uM [3] [%] | remaining at 1 h, 100 uM [3] [%] | remaining at 2 h, 100 uM [3] [%] | remaining at 3 h, 100 uM [3] [%] | Difference from Vehicle Control: Decrease from Baseline in Blood Glucose [4] [mg/dL] | Difference from Vehicle Control: Decrease from Baseline in Body Weight (%) [4] [%] | Difference from Vehicle Control: Decrease from Baseline in Fat Mass [4] [g]
1 | H-MRWQEMNYIFYPRALR-OH [compound 218] | 41.0 | 43.6 | 75.4 |  |  |  |  |  |  |  |  | 
2 | H-RWQEMGYIFYPR-OH [compound 205] | 71.5 | 64.5 | 94.5 |  |  |  |  |  |  |  |  | 
3 | H-RWQEMGYIFYPRALR-OH [compound 215] | 27.2 | 37.4 | 102 | 100 | 71.2 | 37.1 | 42.1 | 15.4 | 6.98 | 16.4 | 2.31 | 0.67
4 | H-RWQEMGYIFYPRN-OH [compound 206] | 53.8 | 50.6 | 100 |  |  |  |  |  |  |  |  | 
5 | H-RWQEMGYIFYPRNLR-OH [compound 216] | 36.3 | 50.1 | 110 |  |  |  |  |  |  |  |  | 
6 | H-RWQEMGYIFYPRQ-OH [compound 207] | 44.6 | 51.6 | 108 |  |  |  |  |  |  |  |  | 
7 | H-RWQEMGYIFYPRQLR-OH [compound 217] | 27.3 | 40.3 | 108 | 100 | 71 | 33.2 | 53.6 | 22.8 | 14.1 | -9.75 | −2.54 | -0.89

Source: patent US11753445B2, “Therapeutic peptides” (COHBAR, INC., priority 2016, dated 2023)
